Test results published in PubChem BioAssay AID2124 (Sanford-Burnham Center for Chemical Genomics, 2009).
Records with an inconclusive call do not appear. The source made the active and inactive calls. How the calls were made is not given here; tested in MIN6 cells.

Experiment: cell-permeable autofluorescent compounds in GFP channel, dose response, artefact control, imaging, high-content imaging (AID 2124);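 further: cells exposed to compound for 48 hours before fixing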
Details: cells, GFP-channel autofluorescence, high-content imaging, at 10 µM; for z-score: stronger effect = higher value

| Compound | z-score | cell count [cells] |
| --- | --- | --- |
| Cc1cc(C)c(C#N)c(SCC2COc3ccccc3O2)n1 (stereo unspecified) | -0.33 (inactive) | 3670 |
| N#C/C(=C/c1ccc(N2CCCCC2)o1)C(=O)NCCc1c[nH]c2ccccc12 | 0.47 | 3410 |
| CCc1cc2c(CN3CCN(CCO)CC3)cc(=O)oc2cc1O | -0.38 (inactive) | 3140 |
| CC(C)(C)C(=O)c1sc2nc(-c3cccs3)cc(C(F)(F)F)c2c1N | -0.22 (inactive) | 2740 |
| N#C/C(=C/c1ccc(N2CCCCC2)o1)C(=O)Nc1ccc(Cl)cc1 | 3 | 2990 |
| CCOc1ccc(OCCCCn2ccnc2)cc1 | -0.39 (inactive) | 2900 |
| O=[N+]([O-])c1ccc(N/N=C/c2sc(N3CCOCC3)nc2-c2ccccc2)c(S(=O)(=O)Nc2ccccc2Cl)c1 | 0.01 | 144 |
| N#C/C(=C/c1ccc(N2CCOCC2)o1)c1ccc(Br)cc1 | 0.24 | 555 |
| CC1(C)Cc2c(ccc3ccccc23)C(c2cc3ccccc3oc2=O)=N1 | -0.33 (inactive) | 2730 |
| N#Cc1nc(N2CCOCC2)nc(N2CCOCC2)n1 | -0.39 (inactive) | 3120 |
| Cc1ccc(SCc2cc(-c3ccc(Cl)cc3)no2)cc1 | -0.38 (inactive) | 2860 |
| CN1CCN(C2=CC3=CC(=C(C#N)C#N)CCC3CC2)CC1 (stereo unspecified) | 0.91 | 2810 |
| CCn1ncc(Br)c1C(=O)Nc1sc2c(c1C(N)=O)CCC2 | -0.39 (inactive) | 3350 |
| COc1nc(OC)nc(N2CCC(C(=O)NCc3cccs3)CC2)n1 | -0.33 (inactive) | 2940 |
| CC(=O)c1ccc2cccc3c2c1N=CN3C | -0.23 (inactive) | 3230 |
| Nc1c(C(=O)N/N=C/c2cccnc2)oc2nc(-c3ccco3)cc(-c3ccco3)c12 | -0.32 (inactive) | 2960 |
| Cc1nn(-c2c(Cl)cc(Cl)cc2Cl)c(=O)c2ccccc12 | -0.33 (inactive) | 3220 |

| Compound | z-score | cell count [cells] |
| --- | --- | --- |
| O=Cc1sc(Nc2ccccc2)nc1Cl | -0.31 (inactive) | 3150 |
| COc1ccc(C2C(C(=O)c3ccccc3)=C(C)Nc3nc4ccccc4n32)c(OC)c1 (stereo unspecified) | -0.33 (inactive) | 3000 |
| O=C1CCCC(O)=C1C=NCCc1ccccc1 | -0.38 (inactive) | 3080 |
| CC(=O)C(=Cc1cn(-c2ccccc2)nc1-c1ccccc1)C(C)=O | -0.32 (inactive) | 3020 |
| O=C(C1=C[C@H](C2CC2)C[C@H](OCCCCO)O1)N1CCN(Cc2ccccc2)CC1 | -0.38 (inactive) | 2880 |
| O=C(/C=C/c1ccco1)NC(=S)Nc1ccccc1N1CCCC1 | -0.39 (inactive) | 2690 |
| CN1CCN(Cc2nc(N)nc(Nc3ccc4c(c3)OCCO4)n2)CC1 | -0.39 (inactive) | 3330 |
| CCOc1cc(N(CC)CC)ccc1/C=C(/C#N)c1nc2ccccc2[nH]1 | 1.08 | 1870 |
| Cc1csc(NC(=O)CN(C)S(=O)(=O)c2cccc3cccnc23)n1 | -0.33 (inactive) | 3250 |
| COc1cccc(OC)c1OCCN(C)C | -0.33 (inactive) | 3360 |
| Cc1cc(C)nc(SCSc2nc(C)cc(C)n2)n1 | -0.38 (inactive) | 3370 |
| O=C(NC1C=CS(=O)(=O)C1)c1sc2ccccc2c1Cl (stereo unspecified) | -0.38 (inactive) | 2120 |
| Cc1nnc(NC(=O)c2sc3nc(-c4cccs4)cc(C(F)(F)F)c3c2N)s1 | 0.85 | 2610 |
| N#Cc1c(C(F)(F)F)cc(-c2ccccc2)nc1SCc1nc(N)nc(N2CCOCC2)n1 | 0.32 | 3070 |
| COc1cccc(NC(=O)N2CCN(c3nnnn3-c3ccccc3)CC2)c1 | -0.33 (inactive) | 2880 |
| N#CC(C#N)=C1C=C2C=C(N3CCCCC3)CCC2CC1 (stereo unspecified) | 3 | 3020 |
